The values below are quoted from earlier work in patent US20030099724A1, “Compounds for prevention of diabetic retinopathy” (priority 2001, published 2003).

The subject of series [1] is diabetic retinopathy. The note with it: rat models.

For `CCOC(=O)C1=C(COCCN)NC(C)=C(C(=O)OC)C1c1ccccc1Cl` (stereo not drawn) [Amlodipine besylate, amlodipine besylate], where the note is “alcohol”, the solubility in alcohol entry is given as “sparingly soluble”. In addition, the solubility in water result (water) is “slightly soluble”.
Turning to `N=C(N)NN` [amino guanidine], the “progression of diabetic retinopathy” value in series [1] is reported as “retards the progression of diabetic retinopathy”.
